In patent US9763980B2, “Combined chemical modification of sphingosine-1-phosphate (S1P) and CXCR4 signalling pathways for hematopoietic stem cell (HSC) mobilization and engraftment” (Children's Medical Center Corporation, priority 2011, dated 2017):
Entries after “also recorded” stand apart in the source; their conditions may differ.

How the values were obtained:
[1] = tested on: CHT hematopoiesis (HSPC markers cmyb and runx1 in the CHT); assay: Zebrafish embryo chemical treatment and dose matrices, whole mount in situ hybridization of cmyb/runx1 in the CHT; format: in vivo; conditions: for cmyb/runx1 expression in the CHT (CHT hematopoiesis): agent alone, treatment from 48 hpf, 72 hpf embryos; for rescue of the effect of 25 μM W146 on cmyb/runx1 expression: addition of agent to W146; for Experimental data: concentration of S1PR1 modulating agent in the combination effective at increasing HSC engraftment / Experimental data: concentration of S1PR1 modulating agent in the combination effective at increasing HSC mobilization: combination with AMD3100; for mobilization of HSC from the bone marrow in vivo: combination with AMD3100 in specific ratios
Experimental: Transgenic zebrafish embryos were intercrossed and selected using epifluorescence (e.g. Runx1+23:EGFP, cmyb:EGFP^4, cd41:EGFP^2, kdrl:DsRed2^31). Live imaging was performed using a spinning disk confocal microscope with an incubated chamber. Zebrafish embryos were mounted and imaged as previously described. Live mouse fetal liver explants were prepared as previously described for aorta-gonad-mesonephros tissue^10. Image processing was done primarily with Fluorender^32 and ImageJ, which included the MTrackJ plugin^33 for manual cell tracking. For chemical screening and dose matrices, stage-matched AB embryos were dechorionated and arrayed 8-10/well in 96-well mesh-bottomed plates (Millipore). Embryos were treated from 48-72 hpf by placement directly in 96-well receiver plates containing small molecules diluted in E3 media+1% DMSO. Embryos were checked for circulation before fixation. Whole mount in situ hybridization was performed as previously described^34, with the addition of 0.2% glutaraldehyde to 4% formaldehyde at the post-fixation step. […] Lineage tracing was performed by injecting cd41:EGFP positive embryos with caged fluorescein conjugated to dextran (MW 10000). Embryos were uncaged in the DA at 28 hpf with a UV laser. Embryos were raised to 46 hpf in E3 media or E3+S1PR1 antagonist W146 (10 μM), then fixed for antibody staining to detect double positive cd41:EGFP and uncaged FITC HSPCs. Receptor fusion cDNAs (25 pg) were injected into one-cell embryos with Tol2 RNA (15 pg). Flow cytometry was performed using a LSR II and cells were sorted using a FACSAria (BD Biosciences). Flow cytometry data was analyzed using FACSDiva and FlowJo software.
Having followed newly born aortic HSPCs to the intermediate tissue, the inventors assessed the signaling pathways involved in embryonic migration. The inventors designed a chemical genetic screen to introduce small molecules to the zebrafish embryo from the peak window of HSPC migration to the CHT (48-72 hpf).

[2] = tested on: HSPCs in the CHT; assay: Time-lapse live imaging and cell tracking in the CHT (Runx1+23:EGFP; kdrl:DsRed2); format: in vivo, zebrafish
Experimental: (§1) Transgenic zebrafish embryos were intercrossed and selected using epifluorescence (e.g. Runx1+23:EGFP, cmyb:EGFP^4, cd41:EGFP^2, kdrl:DsRed2^31). Live imaging was performed using a spinning disk confocal microscope with an incubated chamber. Zebrafish embryos were mounted and imaged as previously described. Live mouse fetal liver explants were prepared as previously described for aorta-gonad-mesonephros tissue^10. Image processing was done primarily with Fluorender^32 and ImageJ, which included the MTrackJ plugin^33 for manual cell tracking. For chemical screening and dose matrices, stage-matched AB embryos were dechorionated and arrayed 8-10/well in 96-well mesh-bottomed plates (Millipore). Embryos were treated from 48-72 hpf by placement directly in 96-well receiver plates containing small molecules diluted in E3 media+1% DMSO. Embryos were checked for circulation before fixation. Whole mount in situ hybridization was performed as previously described^34, with the addition of 0.2% glutaraldehyde to 4% formaldehyde at the post-fixation step. Morpholino (s1pr1/edg1 ATG-MO^23 obtained from Gene Tools, LLC) was injected into one-cell Tu or cmyb:EGFP; kdrl:DsRed2 transgenic embryos at a 1 ng dose (higher doses stop circulation). Lineage tracing was performed by injecting cd41:EGFP positive embryos with caged fluorescein conjugated to dextran (MW 10000). Embryos were uncaged in the DA at 28 hpf with a UV laser. Embryos were raised to 46 hpf in E3 media or E3+S1PR1 antagonist W146 (10 μM), then fixed for antibody staining to detect double positive cd41:EGFP and uncaged FITC HSPCs. Receptor fusion cDNAs (25 pg) were injected into one-cell embryos with Tol2 RNA (15 pg). Flow cytometry was performed using a LSR II and cells were sorted using a FACSAria (BD Biosciences). Flow cytometry data was analyzed using FACSDiva and FlowJo software.
Time-lapse live imaging. Staged transgenic zebrafish embryos were selected and mounted for imaging in 1% LMP agarose with E3 media and tricaine as described. Pregnant C57/BL6 mice were dissected at E11 (vaginal plug observation was E0). Embryos were removed from the uterus in PBS with 10% FCS and penicillin-streptomycin. Embryos were staged as E11 by counting ˜42 somite pairs. Fetal livers were removed from the embryo and treated as described by Boisset and colleagues (“protocol b”)^10. Zebrafish embryos and fetal liver explants were imaged in MatTek glass bottom dishes (No. 1.5 cover slip). […] Quantification of 12 hours of CHT tracking data per time-lapse movie allowed us to define engrafted cells as stationary (i.e. a speed of <0.31 microns/minute) and resident in the CHT for at least 3 hours, otherwise they were scored as migratory and transient. […]

[3] = tested on: HSPCs in the CHT; assay: Lineage tracing of HSPCs from DA to CHT (cd41:EGFP and uncaged FITC); format: in vivo, zebrafish; conditions: W146 10 μM, versus control
Experimental: as §1, with “Lineage tracing was performed by injecting cd41:EGFP positive embryos with caged fluorescein conjugated to dextran (MW 10000). Embryos were uncaged in the DA at 28 hpf with a UV laser. Embryos were raised to 46 hpf in E3 media or E3+S1PR1 antagonist W146 (10 μM), then fixed for antibody staining to detect double positive cd41:EGFP and uncaged FITC HSPCs. Receptor fusion cDNAs (25 pg) were injected into one-cell embryos with Tol2 RNA (15 pg). Flow cytometry was performed using a LSR II and cells were sorted using a FACSAria (BD Biosciences).” left out, “software. […]” for “software.”

[4] = tested on: autoimmune myocarditis; conditions: rat model for autoimmune myocarditis; cited from earlier work
[5] = target: T1, endothelial S1P1 receptors (Mus musculus, UniProt O08530); conditions: cited from earlier work
T1 construct: host or cells: vascular endothelium (as cited)

[6] = in vivo; cited from earlier work
[7] = target: T1, endothelial S1P1 receptors; conditions: type I diabetic vascular endothelium; cited from earlier work
[8] = addition of AUY954, 54 hpf embryos
[9] = dose matrices, agent combined with AMD3100
[10] = W146 10 μM, 38-50 hpf, versus control

T1 sequence (O08530 whole entry): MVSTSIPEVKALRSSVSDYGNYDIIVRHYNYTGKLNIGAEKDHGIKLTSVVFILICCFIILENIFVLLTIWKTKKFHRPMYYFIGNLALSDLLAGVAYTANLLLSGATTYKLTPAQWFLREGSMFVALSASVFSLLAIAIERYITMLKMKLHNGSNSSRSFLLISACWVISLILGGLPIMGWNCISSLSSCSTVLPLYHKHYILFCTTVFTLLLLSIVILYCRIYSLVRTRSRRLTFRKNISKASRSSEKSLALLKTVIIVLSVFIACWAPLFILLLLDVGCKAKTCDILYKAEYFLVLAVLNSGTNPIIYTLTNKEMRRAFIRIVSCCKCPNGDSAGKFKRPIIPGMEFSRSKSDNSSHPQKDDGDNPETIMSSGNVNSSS

With `c1cc(CN2CCCNCCNCCCNCC2)ccc1CN1CCCNCCNCCCNCC1` [AMD3100, 1,1′-[1,4-Phenylenebis(methylene)]bis[1,4,8,11-tetraazacyclotetradecane]] as the compound, how does the “cmyb/runx1 expression in the CHT” value ([1]; AMD3100 25 μM, 54 hpf embryos) read?
The value was “greatly decreases”.

And the “cmyb/runx1 expression in the CHT (CHT hematopoiesis)” value [1]?
Its value is “dose-dependently reduces; also recorded: decreases CHT hematopoiesis”.

And the CHT hematopoiesis ([1]; each agent alone at the doses of the effective FTY720/AMD3100 combination)?
The CHT hematopoiesis was “no effect”.

Which “CHT score (greatest engraftment in dose matrix)” value ([1]; 10 μM AMD3100 and 12.5 μM AUY945) does the source give for `O=C(O)CCNCc1ccc2sc(-c3ccc(-c4ccccc4)c(C(F)(F)F)c3)cc2c1` [AUY954, 3-[[2-[4-phenyl-3-(trifluoromethyl)phenyl]-1-benzothiophen-5-yl]methylamino]propanoic acid] here?
Its value is “+2”.

And the “rescue of the cmyb/runx1 decrease caused by 25 μM AMD3100” value [1, 8]?
Its value is “partially rescued”.

What about the “rescue of the effect of 25 μM SKI-2” value [1, 8] of the same compound?
The value was “rescued”.

And the “rescue of the effect of 25 μM W146 on cmyb/runx1 expression” value ([1]; 54 hpf embryos)?
Its value is “rescued”.

What about the “Experimental data: concentration of S1PR1 modulating agent in the combination effective at increasing HSC engraftment” value [1] of the same compound?
Its value is 12.5 µM.

And the CHT hematopoiesis [1, 9]?
The CHT hematopoiesis was “synergistic increases”.

What does the source list for `CCCCCCCCCCCCC/C=C/[C@@H](O)[C@@H](N)COP(=O)(O)O` [Compound S1P, sphingosine-1-phosphate]?
rescue of the effect of 25 μM W146 on cmyb/runx1 expression ([1]; 54 hpf embryos): rescued; cmyb/runx1 expression in the CHT (CHT hematopoiesis) [1]: altered the migration pattern of HSPCs; also recorded: alters cmyb/runx1 expression pattern; CHT hematopoiesis [1, 9]: synergistic increases

With `CCCCCCc1cccc(NC(=O)[C@H](N)CCP(=O)(O)O)c1` [Compound W146, (R)-3-Amino-4-(3-hexylphenylamino)-4-oxobutylphosphonic acid] as the compound, how does the “number of engrafted cells” value [2, 10] read?
Its value is “decreased”.

What about the “percentage of migratory cells” value [2, 10] of the same compound?
Its value is “increased”.

What about the “tracked cells in the CHT” value [2, 10] of the same compound?
Its value is “increased”.

And the CHT colonization ([2]; embryos in the antagonist during imaging)?
The CHT colonization was “interferes with CHT colonization”.

What about the “number of lineage traced HSPCs in the CHT” value ([3]; embryos raised to 46 hpf) of the same compound?
Its value is “increased”.

And the “morphology of lineage traced HSPCs in the CHT” value [3]?
The value was “morphology that differed from the control; also recorded: morphological changes”.

And the “CHT score in dose matrix” value ([1]; 5 μM AMD3100 and 10 μM W146)?
The value was “greatest CHT score”.

What about the “cmyb/runx1 expression in the CHT” value ([1]; W146 25 μM, 54 hpf embryos) of the same compound?
The value was “decreases”.

And the “Experimental data: concentration of S1PR1 modulating agent in the combination effective at increasing HSC engraftment” value [1]?
The value was 10 µM.

And the “Experimental data: concentration of S1PR1 modulating agent in the combination effective at increasing HSC mobilization” value [1]?
Its value is 5 μM W146.

And the “mobilization of HSC from the bone marrow in vivo” value [1]?
The value was “improves mobilization”.

Which therapeutic efficacy [4] does the source give for `NC(CO)(CO)CCc1ccc(Sc2cccc(OCc3ccccc3)c2)cc1Cl` [KRP-203] here?
Its therapeutic efficacy is “therapeutic efficacy”.

What does the source list for `FC(F)(F)c1cccc(-c2noc(-c3cc(-c4ccccc4)c(C(F)(F)F)s3)n2)c1` [SEW2871, 5-[4-phenyl-5-(trifluoromethyl)-2-thienyl]-3-[3-(trifluoromethyl)phenyl]-1,2,4-oxadiazole]?
protection of the vasculature against TNFα-mediated monocyte/endothelial interactions [5]: protects; bradycardia [6]: does not induce bradycardia; proinflammatory monocyte/endothelial interactions [7]: prevents; CHT score (greatest engraftment in dose matrix) ([1]; 10 μM AMD3100 and 10 μM SEW2871): +2; Experimental data: concentration of S1PR1 modulating agent in the combination effective at increasing HSC engraftment [1]: 10 µM; Experimental data: concentration of S1PR1 modulating agent in the combination effective at increasing HSC mobilization [1]: 15 µM; mobilization of HSC from the bone marrow in vivo [1]: improves mobilization; CHT hematopoiesis [1, 9]: synergistic increases

For `Oc1ccc(Nc2nc(-c3ccc(Cl)cc3)cs2)cc1` [SKI-2], which “effect of SKI-2 in CHT hematopoiesis assay” value ([1]; SKI-2 25 μM, 54 hpf embryos) is on record?
Its value is “depleting endogenous levels of S1P”.

What about the “effect on improving engraftment (CHT)” value ([1]; SKI-2 alone) of the same compound?
Its value is “little effect”.
